In patent publication US20070123500A1, “Prodrugs of ERbeta-selective substances, processes for their preparation and pharmaceutical compositions comprising these compounds” (priority 2005, published 2007):

Columns and labels:
human carboanhydrase II = human carboanhydrase II (Homo sapiens, UniProt P00918); experiment: Carboanhydrase inhibition, photometric, nitrophenyl acetate conversion (CA II); format: biochemical; conditions: read-out: CAII IC50
Text: (§1) b) Carboanhydrase Inhibition—Test Principle and Experimental Description:
(§2) Photometric determination of the inhibition of human carboanhydrase I or II by sulphonamides or sulphamates on microtitre plates with the aid of the enzymatic conversion of nitrophenyl acetate with a colour change from colourless to yellow.

human carboanhydrase I = human carboanhydrase I (Homo sapiens, UniProt P00915); experiment: Carboanhydrase inhibition, photometric, nitrophenyl acetate conversion (CA I); format: biochemical; conditions: read-out: CAI IC50
Text: as §1, §2

[1] = Blood/plasma ratio in human erythrocytes; format: in vitro ADME; conditions: human erythrocytes (blood)
Procedure: (§3) a) Blood-plasma Concentration Ratio—Test Principle and Experimental Description:
(§4) The SO2—NH2 group of the substances according to the invention can lead to a concentration in erythrocytes as a result of binding to carboanhydrases.
(§5) Freshly obtained, heparinized blood from a rat is treated with a defined amount of active compound. The active compound concentration in the plasma obtained therefrom is measured against a calibration curve of spiked (with a known active compound concentration) plasma. The blood-plasma ratio is calculated from the measured concentration and the theoretical concentration.
(§6) In contrast to the results published in WO 01/91797, the concentration ratios of the compounds according to the invention between erythrocytes and plasma are not in a range from 10-1000:1, but in the range <10:1.

[2] = Blood-plasma concentration ratio in rat blood; format: in vitro ADME; conditions: freshly obtained heparinized whole blood
Procedure: as §3, §4, §5, §6

human carboanhydrase I, sequence (P00915 whole entry): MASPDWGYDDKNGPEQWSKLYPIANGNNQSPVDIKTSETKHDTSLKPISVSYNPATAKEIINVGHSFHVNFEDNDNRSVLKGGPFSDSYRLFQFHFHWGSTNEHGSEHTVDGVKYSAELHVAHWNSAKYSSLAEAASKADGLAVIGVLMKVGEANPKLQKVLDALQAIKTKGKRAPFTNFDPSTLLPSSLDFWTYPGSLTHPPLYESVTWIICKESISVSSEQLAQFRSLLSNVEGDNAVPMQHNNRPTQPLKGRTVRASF

SMILES | IC50 (human carboanhydrase II) | IC50 (human carboanhydrase I) | blood plasma ratio [1] | blood plasma ratio [2]
C=C[C@]12CC[C@]3(C)C[C@H](OC(=O)c4cccc(S(N)(=O)=O)c4)C[C@H]3[C@@H]1CCc1cc(O)ccc12 [3-Hydroxy-9α-vinyloestra-1,3,5(10)-trien-16α-yl 3′-sulphamoylbenzoate] | 490 nM | 3400 nM | – | –
C=C[C@]12CC[C@]3(C)[C@@H](F)[C@H](OC(=O)c4cccc(S(N)(=O)=O)c4)C[C@H]3[C@@H]1CCc1cc(O)ccc12 [17β-Fluoro-3-hydroxy-9α-vinyloestra-1,3,5(10)-trien-16α-yl 3′-sulphamoylbenzoate] | 720 nM | 3700 nM | 1.2 | ~3.7
C=C[C@]12CC[C@]3(C)[C@@H](F)[C@H](OC(=O)c4ccccc4)C[C@H]3[C@@H]1CCc1cc(O)ccc12 [17β-Fluoro-3-hydroxy-9α-vinyloestra-1,3,5(10)-trien-16α-yl benzoate, reference compound] | > 10000 nM | > 10000 nM | – | –
C[C@]12CC[C@@H]3c4ccc(OS(N)(=O)=O)cc4CC[C@H]3[C@@H]1CC[C@@H]2O [Oestradiol 3-sulphamate, reference compound] | – | 157 ± 10.6 nM | – | –
